Assay results: patent publication US7410983B2 (Fournier Laboratories Ireland Limited, priority 2000, dated 2008)

How the values were obtained:
[1] = tested on: patients with type 2 diabetes; assay: Venous occlusion plethysmography: forearm blood flow response to intra-brachial acetylcholine; format: in vivo, human; conditions: 12 weeks; for mean change on treatment (Week 12-Week 0) in acetylcholine AUC percent increase in forearm blood flow ratio: single treatment group, 200 mg once daily each agent, ACh 7.5, 15 and 30 μg/min, aspirin pretreatment
Method: Evaluations of vascular function were carried out by bilateral venous occlusion plethysmography at weeks 0 and 12. These consisted of serial measurements of forearm blood flow before and after intra-brachial artery infusion of acetylcholine (ACh 7.5, 15 and 30 μg/min), sodium nitroprusside (SNP 1.5, 3 and 10 μg/min) and N^G-monomethyl-L-arginine (L-NMMA 4 μmol/l). […] Pretreatment with acetylsalicylic acid (aspirin) (650 mg daily taken orally) was given for one week to block prostacyclin and thromboxane generation.
Plethysmography studies were performed during a 5 minute infusion of each agent, diluted in saline and infused at a rate of 1 mL/min into the brachial artery of the non-dominant arm via a thin plastic cannula Each infusion of vasoactive agents was preceded by a period of saline infusion. Bilateral forearm blood flow was measured simultaneously at 15 second intervals for the final two minutes of each 5 minute infusion period employing mercury-in-silastic strain gauges. During measurements hands were excluded from the circulation by inflation of wrist cuffs to 200 mmHg and venous occlusion was obtained by cyclical inflation of upper arm cuffs to 40 mmHg. Results were expressed as the area under the curve (AUC) of the percent increase in forearm blood flow ratio (infused arm versus control arm) to account for any systemic effect of these vasoactive drugs. The AUC provided integration over time of the dose response to the agent used. AUC for percent change in blood flow to ACh was a priori described as the primary efficacy criterion in this trial.
Statistical analyses were performed using 2 by 2 analysis of variance using SPSS package

[2] = tested on: patients with type 2 diabetes; assay: Venous occlusion plethysmography: forearm blood flow response to acetylcholine with co-infusion of L-NMMA; format: in vivo, human; conditions: 12 weeks
Method: (§1) Male or female patients aged less than 70 years and without severe obesity (Body Mass Index below 35 kg/m^2) were included after a 6 week run-in period if they had Haemoglobin A1c below 9%, total cholesterol below 6.5 mmol/l and either triglyceride above 1.8 mmol/l or HDL cholesterol below 1 mmol/l. The two therapeutic agents alone or in combination were given each as 200 mg once daily. Capsules identical in appearance to each agent but containing placebo were given to maintain the double-blind nature of the study.
(§2) Evaluations of vascular function were carried out by bilateral venous occlusion plethysmography at weeks 0 and 12. […]
(§3) Plethysmography studies were performed during a 5 minute infusion of each agent, diluted in saline and infused at a rate of 1 mL/min into the brachial artery of the non-dominant arm via a thin plastic cannula Each infusion of vasoactive agents was preceded by a period of saline infusion. Bilateral forearm blood flow was measured simultaneously at 15 second intervals for the final two minutes of each 5 minute infusion period employing mercury-in-silastic strain gauges. […] Results were expressed as the area under the curve (AUC) of the percent increase in forearm blood flow ratio (infused arm versus control arm) to account for any systemic effect of these vasoactive drugs. […]

[3] = tested on: patients with type 2 diabetes; assay: Venous occlusion plethysmography: forearm blood flow response to intra-brachial sodium nitroprusside; format: in vivo, human; conditions: 12 weeks
Method: as §1, §2, §3

[4] = CoQ10 plasma levels after treatment; format: in vivo, human; conditions: 12 weeks, 200 mg once daily each
Method: as §1

[5] = tested on: patients with type 2 diabetes; assay: Lipids, diabetes control and blood pressure in the randomized clinical trial; format: in vivo, human; conditions: 12 weeks, 200 mg once daily
Method: as §1

patient = conditions: for the patient; cited from earlier work
[6] = pooled groups of the 2×2 design: all patients on the agent, with or without the other agent

In the case of `COC1=C(OC)C(=O)C(C/C=C(\C)CC/C=C(\C)CC/C=C(\C)CC/C=C(\C)CC/C=C(\C)CC/C=C(\C)CC/C=C(\C)CC/C=C(\C)CC/C=C(\C)CCC=C(C)C)=C(C)C1=O` [Q, coenzyme Q10], the “mean change on treatment (Week 12-Week 0) in acetylcholine AUC percent increase in forearm blood flow ratio, factorial margin (F+ or Q+)” value [1, 6] was 206% [119% to, the “mean change on treatment (Week 12-Week 0) in acetylcholine AUC percent increase in forearm blood flow ratio” value [1] was −7% [−119% and the “mean change on treatment (Week 12-Week 0) in acetylcholine AUC percent increase in forearm blood flow ratio” value ([1]; listed as CoQ10) was “no change”. For the same compound, the “mean change on treatment (Week 12-Week 0) in acetylcholine percent increase in forearm blood flow ratio with co-infusion of L-NMMA, factorial margin (F+ or Q+)” value [2, 6] was 48% [6% to 90%], the “mean change on treatment (Week 12-Week 0) in acetylcholine percent increase in forearm blood flow ratio with co-infusion of L-NMMA” value ([2]; single treatment group, 200 mg once daily each agent) was −21% [−76% to and the “mean change on treatment (Week 12-week 0) in sodium nitroprusside AUC percent increase in forearm blood flow ratio, factorial margin (F+ or Q+)” value [3, 6] was 822% [399% to. For the same compound, the “mean change on treatment (Week 12-week 0) in sodium nitroprusside AUC percent increase in forearm blood flow ratio” value ([3]; single treatment group, 200 mg once daily each agent, SNP 1.5, 3 and 10 μg/min) was 50% [−641% to, the “plasma levels of CoQ10 after treatment, CoQ10 alone versus combination groups” value [4] was “did not differ” and the lipid lowering effects [5] was “no lipid lowering effects”. The “dose previously demonstrated to be safe” value (patient) was “up to 300 mg daily”.
